Data set [1] concerns YB-1. Description: YB-1 knockdown efficiency of NA, BNA and AmNA antisenses in HUVEC, HPAEC, MiaPaCa2 (real-time RT-PCR). In kind it is cell-based. To be noted: 24 hours, vs naturally occurring type and LNA type antisense. The protocol: YB-1 naturally occurring type nucleic acid antisense (NA), LNA/BNA type nucleic acid antisense (BNA), and AmNA type nucleic acid antisense (AmNA) were introduced into cells of the vascular endothelial cell strains (HUVEC, HPAEC) and the pancreatic cancer cell strain (MiaPaCa2-) at various concentrations. RNAs were extracted 24 hours afterward, and the YB-1 expression was evaluated by real-time RT-PCR. […] The graphs show mean±SD (n=3, *P<0.01 vs. BNA, P<0.0001 vs. NA)
On the technique in general: Real-time PCR tracks product formation cycle by cycle.

Data set [2] concerns CD31. Description: Microvessel density by CD31 immunostaining in SUIT2-GR subcutaneous tumor. Format: in vivo, nude mice. The following applies: administration into the blood. The text has this: The neovascularity marker CD31 in the SUIT2-GR subcutaneous tumor of the treatment experiment (A) was immunostained. As a result, it was observed that the microvessel density was decreased by the administration of #10 AmNA YB-1 antisense into the blood, and thus inhibition of neovascularization was induced (FIG. 14C).

For data set [3], the system named is pancreatic cancer cell strain MIA PaCa-2. Description: Anticancer agent sensitivity enhancement, MIA PaCa-2. Format: cell-based. To be noted: antisense 5 nM, 5-FU, gemcitabine. The procedure: The #10 AmNA YB-1 antisense (5 nM) was introduced into cells of the pancreatic cancer cell strain MIA PaCa-2 (FIG. 19A) and ovarian cancer cell strain SKOV-3 (FIG. 19B) using the reagent Lipofectamine RNAiMax, and cell-killing effects of the anticancer agent observed in the presence and absence of the antisense were compared. […] The anticancer agent concentrations that provided equivalent cell-killing effects are shown in blue color (5-FU) or red color (gemcitabine).

The test system of data set [4] is YB-1. Description: YB-1 expression in H226 by real-time RT-PCR. Format: cell-based. To be noted: Lipofectamine RNAiMax. The text has this:
The #10 AmNA YB-1 antisense was introduced into cells of the malignant mesothelioma cell strain H226 using the reagent Lipofectamine RNAiMax, and expression of YB-1 was examined by real-time RT-PCR.

Data set [5] relates to malignant mesothelioma cell strain H226. Description: H226 subcutaneous tumor model. In kind it is in vivo. The following applies: 10 mg/kg BW caudal vein once a week for two weeks, vs control group. The procedure: Subcutaneous tumor models of the malignant mesothelioma cell strain H226 were prepared. […] A photograph of the subcutaneous tumor after the treatment is shown in the left panel.

The test system of data set [6] is gastric cancer cell strain AS44. Description: Proliferation of AS44 cells. In kind it is cell-based.

The results in this text go back to patent publication US20170211073A1, “ANTISENSE ANTINEOPLASTIC AGENT” (priority 2014, published 2017).

In the case of “TCTcctgcaccCTGg (TCTCCTGCACCCTGG; chemistry not fully specified) [#10AmNA]”, the YB-1 knockdown efficiency entry in data set [1] is reported as “significantly higher”. In data set [2], the “microvessel density (CD31)” value is reported as “decreased”. In addition, the “cell-killing effects of the anticancer agent in presence of the antisense” value in data set [3] is on record as “Enhancement of the cell-killing effect”. Moreover, the “suppression of YB-1 expression” value in data set [4] was “Concentration-dependent suppression”. Besides, the “increase of the tumor in terms of tumor weight” value in data set [5] was “significantly suppressed”. For the same substance, the suppression of proliferation entry in data set [6] was “suppression of proliferation”.
